Experimental data taken from ChEMBL document CHEMBL1146474, “Design, synthesis, and bioactivities of steroid-linked taxol analogues as potential targeted drugs for prostate and breast cancer” (J Nat Prod, 2004).

What was measured:
[1] = test system: MDA-MB-231; assay: Antiproliferative activity against human MDA-MB-231 cells assessed as inhibition of cell survival after 48 hrs by MTS method; type: functional
[2] = test system: MCF7; assay: Antiproliferative activity against human MCF7 cells assessed as reduction of cell survival after 48 hrs by MTS method; type: functional
[3] = test system: MCF7; assay: Antiproliferative activity against human MCF7 cells assessed as reduction of cell survival after 7 days by MTS method; type: functional
[4] = Induction of tubulin assembly at 0.2 uM relative to taxol
[5] = Induction of tubulin assembly at 1 uM relative to taxol
[6] = test system: A2780; assay: cells; settings: Homo sapiens, A2780, 48 h
[7] = test system: PC-3; assay: cells; settings: Homo sapiens, PC-3, 48 h
[8] = test system: MDA-MB-231; assay: cells; settings: Homo sapiens, MDA-MB-231, 48 h
[9] = test system: MCF7; assay: cells; settings: Homo sapiens, MCF7, 48 h

Compound | inhibition (INH) [1] | Activity [2] | Activity [3] | Activity [4] | Activity [5] | IC50 [6] | IC50 [7] | IC50 [8] | IC50 [9]
CC(=O)O[C@H]1C(=O)[C@@]2(C)[C@H]([C@H](OC(=O)c3ccccc3)[C@]3(O)C[C@H](OC(=O)[C@H](O)[C@@H](NC(=O)c4ccccc4)c4ccccc4)C(C)=C1C3(C)C)[C@]1(OC(C)=O)CO[C@@H]1C[C@@H]2O [PACLITAXEL] | 85% | 20% | 70% |  |  |  |  |  | 
CC(=O)O[C@H]1C(=O)[C@@]2(C)[C@H]([C@H](OC(=O)c3ccccc3)[C@]3(O)C[C@H](OC(=O)[C@H](OC(=O)/C=C/C[C@@H]4C[C@H]5[C@@H]6CCc7cc(O)ccc7[C@H]6CC[C@]5(C)[C@H]4O)[C@@H](NC(=O)c4ccccc4)c4ccccc4)C(C)=C1C3(C)C)[C@]1(OC(C)=O)CO[C@@H]1C[C@@H]2O |  |  |  | 45% | 55% |  |  |  | 
CC(=O)O[C@@]12CO[C@@H]1C[C@H](O)[C@@]1(C)C(=O)[C@H](OC(=O)CCC(=O)O[C@@H]3C[C@]4(C)[C@@H](O)CC[C@H]4[C@@H]4CCc5cc(O)ccc5[C@H]43)C3=C(C)[C@@H](OC(=O)[C@H](O)[C@@H](NC(=O)c4ccccc4)c4ccccc4)C[C@@](O)([C@@H](OC(=O)c4ccccc4)[C@H]21)C3(C)C |  |  |  | 100% | 100% | 1900 nM | 68 nM | 304 nM | 103 nM
CC(=O)O[C@H]1C(=O)[C@@]2(C)[C@H]([C@H](OC(=O)c3ccccc3)[C@]3(O)C[C@H](OC(=O)[C@H](OC(=O)CCC(=O)O[C@@H]4C[C@]5(C)[C@@H](O)CC[C@H]5[C@@H]5CCc6cc(O)ccc6[C@H]54)[C@@H](NC(=O)c4ccccc4)c4ccccc4)C(C)=C1C3(C)C)[C@]1(OC(C)=O)CO[C@@H]1C[C@@H]2O |  |  |  | 60% | 60% |  |  |  | 
CC(=O)O[C@H]1C(=O)[C@]2(C)[C@@H](OC(=O)/C=C/C[C@@H]3C[C@H]4[C@@H]5CCc6cc(O)ccc6[C@H]5CC[C@]4(C)[C@H]3O)C[C@H]3OC[C@@]3(OC(C)=O)[C@H]2[C@H](OC(=O)c2ccccc2)[C@]2(O)C[C@H](OC(=O)[C@H](O)[C@@H](NC(=O)c3ccccc3)c3ccccc3)C(C)=C1C2(C)C |  |  |  | 100% | 100% | 8300 nM | 120 nM | 2200 nM | 1600 nM
CC(=O)O[C@H]1C(=O)[C@]2(C)[C@@H](OC(=O)CCC(=O)O[C@@H]3C[C@]4(C)[C@@H](O)CC[C@H]4[C@@H]4CCc5cc(O)ccc5[C@H]43)C[C@H]3OC[C@@]3(OC(C)=O)[C@H]2[C@H](OC(=O)c2ccccc2)[C@]2(O)C[C@H](OC(=O)[C@H](O)[C@@H](NC(=O)c3ccccc3)c3ccccc3)C(C)=C1C2(C)C | 85% | 20% | 70% | 100% | 100% | 2900 nM | 320 nM | 780 nM | 557 nM
